We go through 2 molecules from patent US7649089B2, “Biodegradable oxidized cellulose esters and their uses as microspheres” (University of Iowa Research Foundation, priority 2001, dated 2010).

A short description of data set [1]: Solubility of 5-fluorouracil in pH 7.4 phosphate buffer saline. The note with it: aqueous buffer, pH 7.4 PBS, read-out: solubility in pH 7.4 phosphate buffer saline solution. The data set is classed as physicochemical.
Data set [2] can be described thus: Release studies of CPT microspheres in pH 7.4 PBS at 37 C, sink condition. The data set is classed as physicochemical. The note with it: free drug. The procedure: OCA was prepared from oxidized (OC, COOH content 14% w/w) by treatment with a mixture of Ac2O/HOAC/H2SO4. The preparation of OCAM was achieved from a reaction between OCA and methanol using dicyclohexylcarbodiimide and 4,4′-dimethylaminopyridine as the catalysts. OCA and OCAM microspheres containing CPT were prepared by the emulsion/solvent evaporation method using the CH2Cl2—CH3OH mixture as a solvent and polyvinyl alcohol as an emulsifier. Microspheres were characterized by IR, scanning electron and confocal microscopes, and powder X-ray diffractometry. Dissolution studies were performed in pH 7.4 phosphate buffer-saline (PBS) at 37° C.
The release studies were performed under the sink condition in pH 7.4 PBS buffer at 37.0±0.2° C. At predetermined time intervals, 5.0 ml of the release medium was withdrawn. This was immediately replaced with an equal volume of the fresh PBS solution. The removed release medium was appropriated diluted with the mobile phase and analyzed by HPLC.

The structures appear in SMILES notation. In brackets after ≈: the same amount, converted by molar mass.

`O=c1[nH]cc(F)c(=O)[nH]1` [5-fluorouracil]: in data set [1], the solubility (in general, the dissolved amount per volume that the medium holds) stood at 14.9 mg/mL (≈ 114 mM).
For the molecule `CC[C@@]1(O)C(=O)OCc2c1cc1n(c2=O)Cc2cc3ccccc3nc2-1` [free CPT, camptothecin], the time to dissolve entry in data set [2] is on record as “about 48 hours”.
